Data from US9481899B2, “Methods and compositions for producing hydrocarbons” (priority 2008, dated 2016).

Molecular target: T1, Npun02004178 protein (Nostoc punctiforme, UniProt B2J1M1)
T1 construct: made in house; host or cells: E. coli BL21 (DE3)
T1 sequence (B2J1M1 1-232): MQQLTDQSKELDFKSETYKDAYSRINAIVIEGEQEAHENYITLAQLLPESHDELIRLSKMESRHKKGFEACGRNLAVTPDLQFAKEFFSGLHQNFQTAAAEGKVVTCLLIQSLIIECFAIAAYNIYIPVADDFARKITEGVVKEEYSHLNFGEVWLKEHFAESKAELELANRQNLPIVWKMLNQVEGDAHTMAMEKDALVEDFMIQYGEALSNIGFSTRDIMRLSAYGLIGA
Experiment: In-vitro fatty aldehyde decarbonylase assay
Assay type: biochemical, Nostoc punctiforme PCC73102
Protocol: The genomic DNA encoding N. punctiforme PCC73102 Npun02004178 (SEQ ID NO:5) was cloned into the NdeI and XhoI sites of vector pET-15b under the control of the T7 promoter. The resulting Npun02004178 protein contained an N-terminal His-tag. An E. coli BL21 strain (DE3) (Invitrogen) was transformed with the plasmid by routine chemical transformation techniques. Protein expression was carried out by first inoculating a colony of the E. coli strain in 5 mL of LB media supplemented with 100 mg/L of carbenicillin and shaken overnight at 37° C. to produce a starter culture. This starter cultures was used to inoculate 0.5 L of LB media supplemented with 100 mg/L of carbenicillin. […] Protein concentration was determined using the Bradford assay (Biorad). […]
To test Npun02004178 protein for decarbonylation activity, the following enzyme assays were set-up. […] Samples were analyzed by GC/MS using the following parameters: run time: 13.13 min; column: HP-5-MS Part No. 19091S-433E (length of 30 meters; I.D.: 0.25 mm narrowbore; film: 0.25 ìM); inject: 1 ìl Agilent 6850 inlet; inlet: 300 C splitless; carrier gas: helium; flow: 1.3 mL/min; oven temp: 75° C. hold 5 min, 320 at 40° C./min, 320 hold 2 min; det: Agilent 5975B VL MSD; det. temp: 330° C.; scan: 50-550 M/Z. Heptadecane from Sigma was used as an authentic reference for determining compound retention time and fragmentation pattern. […]

CCCCCCCCCCCCCCCCCC=O [octadecanal]
in-vitro conversion of octadecanal to heptadecane (30 μM Npun02004178, 200 μM octadecanal, spinach ferredoxin, spinach ferredoxin reductase, 1 mM NADPH, 37° C., 2 h): conversion of octadecanal to heptadecane was observed
in-vitro conversion of octadecanal to heptadecane (NADPH, cyanobacterial ferredoxin oxidoreductase and any of the three cyanobacterial ferredoxins): conversion of octadecanal to heptadecane was observed
